Data from patent publication US10851083B2, “Benzoimidazoles as prolyl hydroxylase inhibitors” (Janssen Pharmaceutica NV, priority 2008, dated 2020).

Columns and labels:
[1] = tested on: Hep-3B cells; assay: Cellular assay: EPO secretion in Hep-3B cells; type: cell-based, human; set-up: EPO secretion, % of control compound: dose or concentration left out as unconfirmed; conditions: Homo sapiens, Hep3B, 24 h, EPO secretion as percentage of control compound 7-[(4-Chloro-phenyl)-(5-methyl-isoxazol-3-ylamino)-methyl]-quinolin-8-ol, read-out: Cellular % EPO Stimulation
[2] = molecular target: human PHD2181-417 (Homo sapiens (Human), UniProt Q9GZT9); assay: PHD2 enzyme activity assay ([14C]-succinic acid production); type: biochemical; conditions: PHD2181-417 polypeptide, HIF-1α peptide 10 μM, [5-14C]-2-oxoglutaric acid; 30 min pre-incubation; tested 10 μM to 3 nM;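 also: reaction ran 10 min with compound in Tris pH 7.5 buffer with catalase, DTT and ascorbate, labelled succinate freed of leftover 2-oxoglutarate by DNP precipitation, then beta counted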
Chain of human PHD2181-417 (Q9GZT9 181-417): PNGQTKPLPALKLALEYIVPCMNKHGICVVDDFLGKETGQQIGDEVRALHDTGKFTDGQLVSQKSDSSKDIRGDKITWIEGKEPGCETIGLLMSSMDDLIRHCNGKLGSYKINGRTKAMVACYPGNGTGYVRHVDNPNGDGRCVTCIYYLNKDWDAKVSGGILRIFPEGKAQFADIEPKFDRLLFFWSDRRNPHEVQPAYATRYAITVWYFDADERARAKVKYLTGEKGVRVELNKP

Row | Enzyme pIC50 [2] | SMILES | EPO secretion, % of control compound [1]
1 | 6.7 | O=C(O)c1cnn(-c2nc3cc(N4CCCCC4)c(Cl)cc3[nH]2)c1 [Example 44, 1-(6-Chloro-5-piperidin-1-yl-1H-benzoimidazol-2-yl)-1H-pyrazole-4-carboxylic Acid] | 139%
2 | 6.5 | CCOc1cc2[nH]c(-n3cc(C(=O)O)cn3)nc2cc1F [Example 119, 1-(6-Ethoxy-5-fluoro-1H-benzoimidazol-2-yl)-1H-pyrazole-4-carboxylic Acid] | 69%
3 | 7 | CSc1cc2[nH]c(-n3cc(C(=O)O)cn3)nc2cc1Cl [Example 75, 1-(5-Chloro-6-methylsulfanyl-1H-benzoimidazol-2-yl)-1H-pyrazole-4-carboxylic Acid] | 106%
4 | 6.9 | O=C(O)c1cnn(-c2nc3cc(Nc4ccccc4)c(Cl)cc3[nH]2)c1 [Example 133, 1-(6-Chloro-5-phenylamino-1H-benzoimidazol-2-yl)-1H-pyrazole-4-carboxylic Acid] | 77%
5 | 7.5 | O=C(O)c1cnn(-c2nc3cc(S(=O)(=O)Cc4c(Cl)cccc4Cl)c(Cl)cc3[nH]2)c1 [Example 177, 1-[6-Chloro-5-(2,6-dichloro-phenylmethanesulfonyl)-1H-benzoimidazol-2-yl]-1H-pyrazole-4-carboxylic Acid] | 66.6%
6 | 6 | Cc1cc(Cl)cc2[nH]c(-n3cc(C(=O)O)cn3)nc12 [Example 33, 1-(6-Chloro-4-methyl-1H-benzoimidazol-2-yl)-1H-pyrazole-4-carboxylic Acid] | 13.4%
7 | 6.6 | CCS(=O)(=O)Nc1cc2nc(-n3cc(C(=O)O)cn3)[nH]c2cc1Cl [Example 137, 1-(6-Chloro-5-ethanesulfonylamino-1H-benzoimidazol-2-yl)-1H-pyrazole-4-carboxylic Acid] | 11%
8 | 6.4 | O=C(O)c1cnn(-c2nc3nc4cc(Cl)c(Cl)cc4nc3[nH]2)c1 [Example 183, 1-(6,7-Dichloro-1H-imidazo[4,5-b]quinoxalin-2-yl)-1H-pyrazole-4-carboxylic Acid] | 3.3%
9 | 7.2 | CC[S+]([O-])c1cc2[nH]c(-n3cc(C(=O)O)cn3)nc2cc1Cl (centres unmarked) [Example 95, 1-(5-Chloro-6-ethanesulfinyl-1H-benzoimidazol-2-yl)-1H-pyrazole-4-carboxylic Acid] | 46.3%
10 | 6.4 | O=C(O)c1cnn(-c2nc3cc(SCc4ccc(Cl)c(Cl)c4)c(Cl)cc3[nH]2)c1 [Example 167, 1-[6-Chloro-5-(3,4-dichloro-benzylsulfanyl)-1H-benzoimidazol-2-yl]-1H-pyrazole-4-carboxylic Acid] | 25.8%
11 | 6.7 | O=C(O)c1cnn(-c2nc3cc(F)c(Br)cc3[nH]2)c1 [Example 109, 1-(6-Bromo-5-fluoro-1H-benzoimidazol-2-yl)-1H-pyrazole-4-carboxylic Acid] | 99%
12 | 6.6 | O=C(O)c1cnn(-c2nc3cc(N4CCOCC4)c(Cl)cc3[nH]2)c1 [Example 45, 1-(6-Chloro-5-morpholin-4-yl-1H-benzoimidazol-2-yl)-1H-pyrazole-4-carboxylic Acid] | 30.9%
13 | 7.5 | O=C(O)c1cnn(-c2nc3cc(S(=O)(=O)Cc4ccccc4Cl)c(Cl)cc3[nH]2)c1 [Example 93, 1-[6-Chloro-5-(2-chloro-phenylmethanesulfonyl)-1H-benzoimidazol-2-yl]-1H-pyrazole-4-carboxylic Acid] | 78.5%
14 | 6.3 | CC(=O)Nc1cc2nc(-n3cc(C(=O)O)cn3)[nH]c2cc1Cl [Example 139, 1-(5-Acetylamino-6-chloro-1H-benzoimidazol-2-yl)-1H-pyrazole-4-carboxylic Acid] | 24%
15 | 7.3 | O=C(O)c1cnn(-c2nc3cc(SCc4c(Cl)cccc4Cl)c(Cl)cc3[nH]2)c1 [Example 168, 1-[6-Chloro-5-(2,6-dichloro-benzylsulfanyl)-1H-benzoimidazol-2-yl]-1H-pyrazole-4-carboxylic Acid] | 50.1%
16 | 7.2 | O=C(O)c1cnn(-c2nc3cc([S+]([O-])c4ccc(Cl)cc4)c(Cl)cc3[nH]2)c1 (centres unmarked) [Example 107] | 47.6%
17 | 6.98 | O=C(O)c1cnn(-c2nc3cc(OC(F)(F)F)c(Cl)cc3[nH]2)c1 [Example 113, 1-(6-Chloro-5-trifluoromethoxy-1H-benzoimidazol-2-yl)-1H-pyrazole-4-carboxylic Acid] | 109%
18 | 6.9 | CSc1cc2[nH]c(-n3cc(C(=O)O)cn3)nc2cc1F [Example 74, 1-(5-Fluoro-6-methylsulfanyl-1H-benzoimidazol-2-yl)-1H-pyrazole-4-carboxylic Acid] | 77.8%
19 | 7.2 | Cc1ccc2c(n1)c(Br)cc1nc(-n3cc(C(=O)O)cn3)[nH]c12 [Example 58, 1-(5-Bromo-7-methyl-1H-imidazo[4,5-f]quinolin-2-yl)-1H-pyrazole-4-carboxylic Acid] | 50%
20 | 7.4 | CS(=O)(=O)c1cc2[nH]c(-n3cc(C(=O)O)cn3)nc2cc1Cl [Example 99, 1-(5-Chloro-6-methanesulfonyl-1H-benzoimidazol-2-yl)-1H-pyrazole-4-carboxylic Acid] | 34.9%

Continued, compound first:

Row | SMILES | Enzyme pIC50 [2] | EPO secretion, % of control compound [1]
21 | COc1cccc(S(=O)(=O)c2cc3nc(-n4cc(C(=O)O)cn4)[nH]c3cc2Cl)c1 [Example 88, 1-[6-Chloro-5-(3-methoxy-benzenesulfonyl)-1H-benzoimidazol-2-yl]-1H-pyrazole-4-carboxylic Acid] | 7.4 | 69.4%
22 | Cc1cc(C)c(CS(=O)(=O)c2cc3nc(-n4cc(C(=O)O)cn4)[nH]c3cc2Cl)c(C)c1 [Example 90, 1-[6-Chloro-5-(2,4,6-trimethyl-phenylmethanesulfonyl)-1H-benzoimidazol-2-yl]-1H-pyrazole-4-carboxylic Acid] | 7.3 | 8.25%
23 | O=C(O)c1cnn(-c2nc3cc(C(F)(F)F)c(C(F)(F)F)cc3[nH]2)c1 [Example 126, 1-(5,6-Bis-trifluoromethyl-1H-benzoimidazol-2-yl)-1H-pyrazole-4-carboxylic Acid] | 7.4 | 82.7%
24 | CCS(=O)(=O)c1cc2nc(-n3cc(C(=O)O)cn3)[nH]c2cc1F [Example 156, 1-(5-Ethylsulfonyl-6-fluoro-1H-benzoimidazol-2-yl)-1H-pyrazole-4-carboxylic Acid] | 7.4 | 51.9%
25 | O=C(O)c1cnn(-c2nc3cc(NS(=O)(=O)c4ccccc4)c(Cl)cc3[nH]2)c1 [Example 138, 1-(5-Benzenesulfonylamino-6-chloro-1H-benzoimidazol-2-yl)-1H-pyrazole-4-carboxylic Acid] | 6.8 | 19%
26 | O=C(O)c1cnn(-c2nc3cc(C(=O)Nc4ccccc4)ccc3[nH]2)c1 [Example 120, 1-(5-Phenylcarbamoyl-1H-benzoimidazol-2-yl)-1H-pyrazole-4-carboxylic Acid] | 6.9 | 21.1%
27 | CS(=O)(=O)c1cc2[nH]c(-n3cc(C(=O)O)cn3)nc2cc1C(F)(F)F [Example 97, 1-(6-Methanesulfonyl-5-trifluoromethyl-1H-benzoimidazol-2-yl)-1H-pyrazole-4-carboxylic Acid] | 7.6 | 75.9%
28 | O=C(O)c1cnn(-c2nc3c(Br)cc(C(F)(F)F)cc3[nH]2)c1 [Example 35, 1-(4-Bromo-6-trifluoromethyl-1H-benzoimidazol-2-yl)-1H-pyrazole-4-carboxylic Acid] | 6.8 | 29.7%
29 | O=C(O)c1cnn(-c2nc3cc(C(=O)NN4CCOCC4)ccc3[nH]2)c1 [Example 122, 1-[5-(Morpholin-4-ylcarbamoyl)-1H-benzoimidazol-2-yl]-1H-pyrazole-4-carboxylic Acid] | 6.6 | 5.4%
30 | O=C(O)c1cnn(-c2nc3cc(Sc4ccccc4)c(Cl)cc3[nH]2)c1 [Example 62, 1-(6-Chloro-5-phenylsulfanyl-1H-benzoimidazol-2-yl)-1H-pyrazole-4-carboxylic Acid] | 6.75 | 45.8%
31 | CS(=O)(=O)c1cc2[nH]c(-n3cc(C(=O)O)cn3)nc2cc1OC(F)(F)F [Example 100, 1-(6-Methanesulfonyl-5-trifluoromethoxy-1H-benzoimidazol-2-yl)-1H-pyrazole-4-carboxylic Acid] | 7.5 | 50.2%
32 | O=C(O)c1cnn(-c2nc3cc(OCc4ccccc4)c(Cl)cc3[nH]2)c1 [Example 59, 1-(5-Benzyloxy-6-chloro-1H-benzoimidazol-2-yl)-1H-pyrazole-4-carboxylic Acid] | 6.4 | 55.9%
33 | COc1ccc(S(=O)(=O)c2cc3nc(-n4cc(C(=O)O)cn4)[nH]c3cc2Cl)cc1 [Example 84, 1-[6-Chloro-5-(4-methoxy-benzenesulfonyl)-1H-benzoimidazol-2-yl]-1H-pyrazole-4-carboxylic Acid] | 7.3 | 42.7%
34 | O=C(O)c1cnn(-c2nc3cc(S(=O)(=O)c4ccc(OC(F)(F)F)cc4)c(Cl)cc3[nH]2)c1 [Example 86, 1-[6-Chloro-5-(4-trifluoromethoxy-benzenesulfonyl)-1H-benzoimidazol-2-yl]-1H-pyrazole-4-carboxylic Acid] | 7.3 | 48.9%
